Assay results from the kinase profiling compilation of Christmann-Franck et al. (2016).
Several values for one entry are separate records, joined by “and”; a condition that tells them apart may be missing. Equal entries are not always repeated. One block for each compound: values may come before it.

Assays:
Assay in all cases: Caliper, Mobility shift assay off-chip
[1] = target: AKT1 (human) (UniProt P31749)
[2] = target: ALK (human) (UniProt Q9UM73)
[3] = target: BRSK2 (human) (UniProt Q8IWQ3)
[4] = target: CDK2 CCNA2 (human) (UniProt P24941+P20248)
[5] = target: CHEK1 (human) (UniProt O14757)
[6] = target: CSK (human) (UniProt P41240)
[7] = target: EGFR (human) (UniProt P00533)
[8] = target: EPHA2 (human) (UniProt P29317)
[9] = target: EPHA4 (human) (UniProt P54764)
[10] = target: FGFR1 (human) (UniProt P11362)
[11] = target: FGFR3 (human) (UniProt P22607)
[12] = target: FLT3 (human) (UniProt P36888)
[13] = target: IGF1R (human) (UniProt P08069)
[14] = target: IKBKB (human) (UniProt O14920)
[15] = target: KDR (human) (UniProt P35968)
[16] = target: KIT (human) (UniProt P10721)
[17] = target: MAP3K7 (human) (UniProt O43318)
[18] = target: MAPK11 (human) (UniProt Q15759)
[19] = target: MAPK12 (human) (UniProt P53778)
[20] = target: MAPK13 (human) (UniProt O15264)
[21] = target: MAPK8 (human) (UniProt P45983)
[22] = target: MAPKAPK2 (human) (UniProt P49137)
[23] = target: MAPKAPK5 (human) (UniProt Q8IW41)
[24] = target: NEK2 (human) (UniProt P51955)
[25] = target: NEK6 (human) (UniProt Q9HC98)
[26] = target: PAK4 (human) (UniProt O96013)
[27] = target: PIM1 (human) (UniProt P11309)
[28] = target: PIM2 (human) (UniProt Q9P1W9)
[29] = target: PLK3 (human) (UniProt Q9H4B4)
[30] = target: PRKCA (human) (UniProt P17252)
[31] = target: PRKCG (human) (UniProt P05129)
[32] = target: PRKCI (human) (UniProt P41743)
[33] = target: RAF1 (human) (UniProt P04049)
[34] = target: RIPK2 (human) (UniProt O43353)
[35] = target: ROCK1 (human) (UniProt Q13464)
[36] = target: RPS6KA1 KD1 KD2 (human) (UniProt Q15418)
[37] = target: RPS6KA5 KD1 KD2 (human) (UniProt O75582)
[38] = target: RPS6KB1 (human) (UniProt P23443)
[39] = target: SRC (human) (UniProt P12931)
[40] = target: TEK (human) (UniProt Q02763)
[41] = target: ZAP70 (human) (UniProt P43403)

PIM1 (human), sequence (P11309 whole entry, looked up): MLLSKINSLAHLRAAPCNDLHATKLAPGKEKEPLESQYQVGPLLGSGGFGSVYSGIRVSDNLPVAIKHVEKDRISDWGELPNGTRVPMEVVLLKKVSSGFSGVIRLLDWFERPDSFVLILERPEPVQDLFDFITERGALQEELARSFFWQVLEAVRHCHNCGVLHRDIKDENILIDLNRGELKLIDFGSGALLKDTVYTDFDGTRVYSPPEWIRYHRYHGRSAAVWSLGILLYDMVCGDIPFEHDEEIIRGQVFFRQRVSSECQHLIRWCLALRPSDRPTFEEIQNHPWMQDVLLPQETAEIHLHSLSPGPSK
BRSK2 (human), sequence (Q8IWQ3 whole entry, looked up): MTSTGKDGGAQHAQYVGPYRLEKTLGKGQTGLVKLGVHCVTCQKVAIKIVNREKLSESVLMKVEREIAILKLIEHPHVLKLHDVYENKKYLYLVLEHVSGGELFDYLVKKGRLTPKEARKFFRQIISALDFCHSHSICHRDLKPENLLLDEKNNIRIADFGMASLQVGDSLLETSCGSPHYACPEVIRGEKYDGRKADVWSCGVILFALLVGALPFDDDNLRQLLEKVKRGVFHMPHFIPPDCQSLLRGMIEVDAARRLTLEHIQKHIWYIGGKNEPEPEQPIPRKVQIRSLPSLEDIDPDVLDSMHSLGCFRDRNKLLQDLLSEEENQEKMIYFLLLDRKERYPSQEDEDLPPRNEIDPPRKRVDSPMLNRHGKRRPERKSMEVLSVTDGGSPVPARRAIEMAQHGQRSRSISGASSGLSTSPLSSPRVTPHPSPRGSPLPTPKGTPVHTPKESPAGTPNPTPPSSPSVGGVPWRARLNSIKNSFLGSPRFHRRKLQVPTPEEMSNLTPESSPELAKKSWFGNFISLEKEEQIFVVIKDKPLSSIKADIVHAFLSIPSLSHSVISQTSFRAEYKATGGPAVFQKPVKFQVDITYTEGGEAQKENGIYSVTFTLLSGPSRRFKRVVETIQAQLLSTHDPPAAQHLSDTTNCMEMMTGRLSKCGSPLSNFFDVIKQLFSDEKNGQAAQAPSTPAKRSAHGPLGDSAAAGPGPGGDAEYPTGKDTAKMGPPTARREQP
EPHA2 (human), sequence (P29317 whole entry, looked up): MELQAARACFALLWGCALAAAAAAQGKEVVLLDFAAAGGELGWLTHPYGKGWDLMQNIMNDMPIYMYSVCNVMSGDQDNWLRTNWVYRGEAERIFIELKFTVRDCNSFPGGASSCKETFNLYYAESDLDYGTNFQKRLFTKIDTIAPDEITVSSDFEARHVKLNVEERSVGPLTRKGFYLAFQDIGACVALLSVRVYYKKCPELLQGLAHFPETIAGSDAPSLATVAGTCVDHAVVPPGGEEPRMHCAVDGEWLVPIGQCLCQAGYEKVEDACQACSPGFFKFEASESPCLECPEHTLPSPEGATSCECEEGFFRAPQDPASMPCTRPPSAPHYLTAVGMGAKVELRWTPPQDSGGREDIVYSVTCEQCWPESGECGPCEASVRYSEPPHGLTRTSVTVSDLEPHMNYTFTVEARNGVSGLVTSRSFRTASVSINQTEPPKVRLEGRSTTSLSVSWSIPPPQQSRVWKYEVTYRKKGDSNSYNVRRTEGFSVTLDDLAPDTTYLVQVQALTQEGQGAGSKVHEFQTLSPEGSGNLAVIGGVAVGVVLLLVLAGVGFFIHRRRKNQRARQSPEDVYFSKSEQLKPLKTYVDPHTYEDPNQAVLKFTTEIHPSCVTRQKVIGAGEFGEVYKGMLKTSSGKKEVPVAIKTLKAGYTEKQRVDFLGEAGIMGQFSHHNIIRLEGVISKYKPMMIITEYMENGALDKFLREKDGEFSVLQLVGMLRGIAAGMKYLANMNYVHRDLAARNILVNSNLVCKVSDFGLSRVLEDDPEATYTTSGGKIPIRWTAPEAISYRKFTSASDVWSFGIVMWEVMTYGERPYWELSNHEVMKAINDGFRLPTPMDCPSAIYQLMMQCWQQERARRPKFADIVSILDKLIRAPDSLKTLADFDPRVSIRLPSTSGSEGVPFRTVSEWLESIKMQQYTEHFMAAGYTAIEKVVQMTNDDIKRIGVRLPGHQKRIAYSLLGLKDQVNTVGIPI
NEK6 (human), sequence (Q9HC98 whole entry, looked up): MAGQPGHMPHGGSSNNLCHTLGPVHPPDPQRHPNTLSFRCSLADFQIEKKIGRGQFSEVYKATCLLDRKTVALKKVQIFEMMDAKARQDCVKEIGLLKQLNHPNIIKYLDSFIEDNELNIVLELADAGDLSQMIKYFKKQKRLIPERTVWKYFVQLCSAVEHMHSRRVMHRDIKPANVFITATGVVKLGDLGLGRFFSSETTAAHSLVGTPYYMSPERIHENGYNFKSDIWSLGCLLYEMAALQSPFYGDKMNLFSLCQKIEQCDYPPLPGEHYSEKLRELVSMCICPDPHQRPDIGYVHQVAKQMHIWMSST
PLK3 (human), sequence (Q9H4B4 whole entry, looked up): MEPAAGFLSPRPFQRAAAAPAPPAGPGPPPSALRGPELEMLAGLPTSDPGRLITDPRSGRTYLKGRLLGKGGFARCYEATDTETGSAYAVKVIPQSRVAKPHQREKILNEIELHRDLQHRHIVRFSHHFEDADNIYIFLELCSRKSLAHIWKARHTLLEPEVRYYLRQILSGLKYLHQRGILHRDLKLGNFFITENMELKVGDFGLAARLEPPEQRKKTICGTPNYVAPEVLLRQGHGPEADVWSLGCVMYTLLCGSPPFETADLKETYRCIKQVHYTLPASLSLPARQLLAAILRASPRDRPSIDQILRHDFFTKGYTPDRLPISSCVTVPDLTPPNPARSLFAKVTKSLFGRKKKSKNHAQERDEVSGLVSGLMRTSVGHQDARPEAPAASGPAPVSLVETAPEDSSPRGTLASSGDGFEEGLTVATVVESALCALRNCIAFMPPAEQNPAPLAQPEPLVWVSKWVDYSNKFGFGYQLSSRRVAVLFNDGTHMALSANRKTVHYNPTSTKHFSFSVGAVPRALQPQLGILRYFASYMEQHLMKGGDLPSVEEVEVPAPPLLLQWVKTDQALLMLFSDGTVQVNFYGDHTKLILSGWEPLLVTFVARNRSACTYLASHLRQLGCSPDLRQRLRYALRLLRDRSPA
CHEK1 (human), sequence (O14757 whole entry, looked up): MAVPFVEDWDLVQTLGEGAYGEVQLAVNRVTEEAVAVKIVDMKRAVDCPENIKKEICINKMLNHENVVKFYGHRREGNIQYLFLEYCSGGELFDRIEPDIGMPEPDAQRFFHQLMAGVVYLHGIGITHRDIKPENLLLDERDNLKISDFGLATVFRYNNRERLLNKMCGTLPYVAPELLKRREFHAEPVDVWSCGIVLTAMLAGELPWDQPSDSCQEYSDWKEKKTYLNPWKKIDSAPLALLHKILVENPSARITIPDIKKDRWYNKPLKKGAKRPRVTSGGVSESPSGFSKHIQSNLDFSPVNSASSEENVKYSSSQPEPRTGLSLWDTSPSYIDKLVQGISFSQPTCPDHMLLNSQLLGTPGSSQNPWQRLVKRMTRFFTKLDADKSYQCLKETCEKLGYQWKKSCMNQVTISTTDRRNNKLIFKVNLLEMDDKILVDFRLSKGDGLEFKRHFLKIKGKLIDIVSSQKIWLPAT
KIT (human), sequence (P10721 whole entry, looked up): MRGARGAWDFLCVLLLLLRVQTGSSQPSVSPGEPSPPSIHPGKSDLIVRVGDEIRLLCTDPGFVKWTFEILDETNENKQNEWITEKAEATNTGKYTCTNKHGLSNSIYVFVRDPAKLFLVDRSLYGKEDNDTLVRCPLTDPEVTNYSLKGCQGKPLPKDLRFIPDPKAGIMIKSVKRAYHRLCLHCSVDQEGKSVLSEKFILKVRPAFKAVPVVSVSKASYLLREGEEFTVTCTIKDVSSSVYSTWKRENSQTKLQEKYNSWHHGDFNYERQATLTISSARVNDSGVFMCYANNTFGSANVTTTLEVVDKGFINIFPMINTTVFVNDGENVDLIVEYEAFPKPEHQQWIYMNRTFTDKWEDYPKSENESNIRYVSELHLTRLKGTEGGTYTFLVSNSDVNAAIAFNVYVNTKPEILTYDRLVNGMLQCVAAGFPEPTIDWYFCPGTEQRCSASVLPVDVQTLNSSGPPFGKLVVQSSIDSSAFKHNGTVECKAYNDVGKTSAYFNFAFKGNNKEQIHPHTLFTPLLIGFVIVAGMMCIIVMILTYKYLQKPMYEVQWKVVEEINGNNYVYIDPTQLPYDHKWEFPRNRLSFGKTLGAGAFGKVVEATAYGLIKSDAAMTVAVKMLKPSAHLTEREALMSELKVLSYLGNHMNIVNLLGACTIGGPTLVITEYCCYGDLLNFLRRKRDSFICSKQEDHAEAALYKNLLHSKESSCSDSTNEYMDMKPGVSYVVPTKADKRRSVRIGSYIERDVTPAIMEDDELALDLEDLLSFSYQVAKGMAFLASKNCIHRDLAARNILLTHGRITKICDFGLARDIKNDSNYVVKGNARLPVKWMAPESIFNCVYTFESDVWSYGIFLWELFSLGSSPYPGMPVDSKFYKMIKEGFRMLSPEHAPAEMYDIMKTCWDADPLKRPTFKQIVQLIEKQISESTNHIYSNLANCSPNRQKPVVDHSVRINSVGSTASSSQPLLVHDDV
PIM2 (human), sequence (Q9P1W9 whole entry, looked up): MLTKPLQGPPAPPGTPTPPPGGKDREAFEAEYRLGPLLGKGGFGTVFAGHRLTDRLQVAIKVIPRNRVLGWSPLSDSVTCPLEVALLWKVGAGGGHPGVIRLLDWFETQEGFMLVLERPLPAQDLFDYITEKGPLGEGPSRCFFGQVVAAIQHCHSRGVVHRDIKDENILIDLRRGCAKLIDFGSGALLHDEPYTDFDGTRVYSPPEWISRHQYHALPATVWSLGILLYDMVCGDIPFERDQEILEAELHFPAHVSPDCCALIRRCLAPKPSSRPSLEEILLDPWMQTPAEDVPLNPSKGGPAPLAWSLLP

residual activity ([1]; compound 1.0 µM): 98%
residual activity ([2]; compound 1.0 µM): 77%
residual activity ([3]; compound 1.0 µM): 15%
residual activity ([4]; compound 1.0 µM): 104%
residual activity ([5]; compound 1.0 µM): 46%
residual activity ([6]; compound 1.0 µM): 75%
residual activity ([7]; compound 1.0 µM): 116%
residual activity ([8]; compound 1.0 µM): 131%
residual activity ([9]; compound 1.0 µM): 103%
residual activity ([10]; compound 1.0 µM): 29%
residual activity ([11]; compound 1.0 µM): 60%
residual activity ([12]; compound 1.0 µM): 43%
residual activity ([13]; compound 1.0 µM): 85%
residual activity ([14]; compound 1.0 µM): 92%
residual activity ([15]; compound 1.0 µM): 42%
residual activity ([16]; compound 1.0 µM): 109%
residual activity ([17]; compound 1.0 µM): 90%
residual activity ([18]; compound 1.0 µM): 110%
residual activity ([19]; compound 1.0 µM): 106%
residual activity ([20]; compound 1.0 µM): 108%
residual activity ([21]; compound 1.0 µM): 87%
residual activity ([22]; compound 1.0 µM): 115%
residual activity ([23]; compound 1.0 µM): 75%
residual activity ([24]; compound 1.0 µM): 116%
residual activity ([25]; compound 1.0 µM): 110%
residual activity ([26]; compound 1.0 µM): 95%
residual activity ([27]; compound 1.0 µM): 107%
residual activity ([28]; compound 1.0 µM): 99%
residual activity ([29]; compound 1.0 µM): 85%
residual activity ([30]; compound 1.0 µM): 108%
residual activity ([31]; compound 1.0 µM): 95%
residual activity ([32]; compound 1.0 µM): 98%
residual activity ([33]; compound 1.0 µM): 107%
residual activity ([34]; compound 1.0 µM): 51%
residual activity ([35]; compound 1.0 µM): 102%
residual activity ([36]; compound 1.0 µM): 20%
residual activity ([37]; compound 1.0 µM): 83%
residual activity ([38]; compound 1.0 µM): 45%
residual activity ([39]; compound 1.0 µM): 83% and 87%
residual activity ([40]; compound 1.0 µM): 109%
residual activity ([41]; compound 1.0 µM): 104%
SMILES: C[C@@H](Nc1nc2c(C#CC3CC3)c[nH]c(=O)c2c2cc(-c3cn[nH]c3)ccc12)C(C)(C)C

residual activity ([1]; compound 1.0 µM): 102%
residual activity ([2]; compound 1.0 µM): 116%
residual activity ([3]; compound 1.0 µM): 18%
residual activity ([4]; compound 1.0 µM): 104%
residual activity ([5]; compound 1.0 µM): 5%
residual activity ([6]; compound 1.0 µM): 110%
residual activity ([7]; compound 1.0 µM): 110%
residual activity ([8]; compound 1.0 µM): 107%
residual activity ([9]; compound 1.0 µM): 104%
residual activity ([10]; compound 1.0 µM): 43%
residual activity ([11]; compound 1.0 µM): 102%
residual activity ([12]; compound 1.0 µM): 25%
residual activity ([13]; compound 1.0 µM): 145%
residual activity ([14]; compound 1.0 µM): 104%
residual activity ([15]; compound 1.0 µM): 95%
residual activity ([16]; compound 1.0 µM): 112%
residual activity ([17]; compound 1.0 µM): 56%
residual activity ([18]; compound 1.0 µM): 99%
residual activity ([19]; compound 1.0 µM): 107%
residual activity ([20]; compound 1.0 µM): 97%
residual activity ([21]; compound 1.0 µM): 106%
residual activity ([22]; compound 1.0 µM): 88%
residual activity ([23]; compound 1.0 µM): 80%
residual activity ([24]; compound 1.0 µM): 118%
residual activity ([25]; compound 1.0 µM): 101%
residual activity ([26]; compound 1.0 µM): 69%
residual activity ([27]; compound 1.0 µM): 97%
residual activity ([28]; compound 1.0 µM): 92%
residual activity ([29]; compound 1.0 µM): 95%
residual activity ([30]; compound 1.0 µM): 107%
residual activity ([31]; compound 1.0 µM): 75%
residual activity ([32]; compound 1.0 µM): 114%
residual activity ([33]; compound 1.0 µM): 106%
residual activity ([34]; compound 1.0 µM): 93%
residual activity ([35]; compound 1.0 µM): 66%
residual activity ([36]; compound 1.0 µM): 2%
residual activity ([37]; compound 1.0 µM): 68%
residual activity ([38]; compound 1.0 µM): 76%
residual activity ([39]; compound 1.0 µM): 104%
residual activity ([40]; compound 1.0 µM): 106%
residual activity ([41]; compound 1.0 µM): 114%
SMILES: Cc1n[nH]c2c1c(=O)n(CCCN)c1ccc(Cl)cc21

SMILES: O=C(N[C@@H](COc1ccc2[nH]c(=O)[nH]c2c1)c1ccccc1)c1cccn(Cc2ccc(F)c(F)c2)c1=O
residual activity ([1]; compound 10.0 µM): 107%
residual activity ([2]; compound 10.0 µM): 116%
residual activity ([3]; compound 10.0 µM): 111%
residual activity ([4]; compound 10.0 µM): 99%
residual activity ([5]; compound 10.0 µM): 105%
residual activity ([6]; compound 10.0 µM): 114%
residual activity ([7]; compound 10.0 µM): 89%
residual activity ([8]; compound 10.0 µM): 127%
residual activity ([9]; compound 10.0 µM): 101%
residual activity ([10]; compound 10.0 µM): 86%
residual activity ([11]; compound 10.0 µM): 122%
residual activity ([12]; compound 10.0 µM): 103%
residual activity ([13]; compound 10.0 µM): 116%
residual activity ([14]; compound 10.0 µM): 100%
residual activity ([15]; compound 10.0 µM): 101%
residual activity ([16]; compound 10.0 µM): 107%
residual activity ([17]; compound 10.0 µM): 101%
residual activity ([18]; compound 10.0 µM): 100%
residual activity ([19]; compound 10.0 µM): 115%
residual activity ([20]; compound 10.0 µM): 114%
residual activity ([21]; compound 10.0 µM): 125%
residual activity ([22]; compound 10.0 µM): 98%
residual activity ([23]; compound 10.0 µM): 98%
residual activity ([24]; compound 10.0 µM): 94%
residual activity ([25]; compound 10.0 µM): 99%
residual activity ([26]; compound 10.0 µM): 105%
residual activity ([27]; compound 10.0 µM): 104%
residual activity ([28]; compound 10.0 µM): 100%
residual activity ([29]; compound 10.0 µM): 96%
residual activity ([30]; compound 10.0 µM): 98%
residual activity ([31]; compound 10.0 µM): 104%
residual activity ([32]; compound 10.0 µM): 97%
residual activity ([33]; compound 10.0 µM): 109%
residual activity ([34]; compound 10.0 µM): 101%
residual activity ([35]; compound 10.0 µM): 97%
residual activity ([36]; compound 10.0 µM): 107%
residual activity ([37]; compound 10.0 µM): 109%
residual activity ([38]; compound 10.0 µM): 104%
residual activity ([39]; compound 10.0 µM): 94% and 101%
residual activity ([40]; compound 10.0 µM): 105%
residual activity ([41]; compound 10.0 µM): 100%

residual activity ([1]; compound 10.0 µM): 39%
residual activity ([2]; compound 10.0 µM): 26%
residual activity ([3]; compound 10.0 µM): 1%
residual activity ([4]; compound 10.0 µM): 53%
residual activity ([5]; compound 10.0 µM): 10%
residual activity ([6]; compound 10.0 µM): 101%
residual activity ([7]; compound 10.0 µM): 75%
residual activity ([8]; compound 10.0 µM): 96%
residual activity ([9]; compound 10.0 µM): 101%
residual activity ([10]; compound 10.0 µM): 32%
residual activity ([11]; compound 10.0 µM): 30%
residual activity ([12]; compound 10.0 µM): 25%
residual activity ([13]; compound 10.0 µM): 61%
residual activity ([14]; compound 10.0 µM): 15%
residual activity ([15]; compound 10.0 µM): 92%
residual activity ([16]; compound 10.0 µM): 40%
residual activity ([17]; compound 10.0 µM): 12%
residual activity ([18]; compound 10.0 µM): 25%
residual activity ([19]; compound 10.0 µM): 46%
residual activity ([20]; compound 10.0 µM): 46%
residual activity ([21]; compound 10.0 µM): 10%
residual activity ([22]; compound 10.0 µM): 17%
residual activity ([23]; compound 10.0 µM): 17%
residual activity ([24]; compound 10.0 µM): 96%
residual activity ([25]; compound 10.0 µM): 48%
residual activity ([26]; compound 10.0 µM): 78%
residual activity ([27]; compound 10.0 µM): 49%
residual activity ([28]; compound 10.0 µM): 36%
residual activity ([29]; compound 10.0 µM): 54%
residual activity ([30]; compound 10.0 µM): 8%
residual activity ([31]; compound 10.0 µM): 21%
residual activity ([32]; compound 10.0 µM): 73%
residual activity ([33]; compound 10.0 µM): 128%
residual activity ([34]; compound 10.0 µM): 20%
residual activity ([35]; compound 10.0 µM): 26%
residual activity ([36]; compound 10.0 µM): 68%
residual activity ([37]; compound 10.0 µM): 25%
residual activity ([38]; compound 10.0 µM): 17%
residual activity ([39]; compound 10.0 µM): 94%
residual activity ([40]; compound 10.0 µM): 105%
residual activity ([41]; compound 10.0 µM): 117%
SMILES: CC(C)(C)c1nc2c3ccc(F)cc3c3c(=O)[nH]ccc3c2[nH]1
